# Results from patent publication US9050341B2, “Methods of treating drug resistant and other tumors by administering 6,7-dialkoxy quinazoline derivatives” (NATCO PHARMA LIMITED, priority 2009, dated 2015).
# Experiments:
# Assay in all cases: KinomeScan kinase profiling
# Assay type in all cases: binding
# [1] = target: T1, MAP4K4 (Homo sapiens, UniProt O95819)
# T1 construct: host or cells: E. coli derived from BL21, infected with T7 phage
# Text: (§1) The kinases were ABL1(F317L), ABL1(H396P), ABL1(Q252H), ABL1(Y253F), ADCK3, ADCK4, ALK, ARK5, AXL, BLK, BRSK2, CDK7, CIT, CLK4, CSNK1D, CSNK1E, DAPK1, DAPK3, DCAMKL3, DMPK, EGFR, EGFR(E746-A750DEL), EGFR(G719C), EGFR(G719S), EGFR(L747-E749DEL, A750P), EGFR(L747-S752 DEL, P753S), EGFR(L747-T751DEL, Sin), EGFR(L858R), EGFR(L861Q), EGFR(S752-I759DEL), EPHA5, EPHA6, ERBB2, ERBB4, ERK3, ERK4, FGR, FLT3(D835H), FLT3(D835Y), FLT3(ITD), FLT3(N841 I), FRK, GAK, GCN2(KIN.DOM.2, S808G), HCK, IRAK3, JAK1(KIN.DOM.1), KIT, KIT(D816V), KIT(V559D), KIT(V559D,T670I), LCK, LOK, LTK, LYN, MAP3K3, MAP4K4, MAP4K5, MET, MINK, MKNK1, MKNK2, MST4, MYLK2, PDGFRB, PIM3, PKN2, PRKD1, PRKD2, PRKD3, PRKG1, RIPK2, RPS6KA4(KIN.DOM.2), SIK2, SLK, SNARK, SRC, STK36, TNIK, TNNI3K, TYK2(KIN.DOM.2).
# (§2) Kinase assays: Assays were performed as described in Fabian et al. (2005) Nature Biotechnology, vol. 23, p. 329. Kinase-tagged T7 phage strains were grown in parallel in 24 or 96-well blocks in an E. coli host derived from the BL21 strain. E. coli were grown to log-phase and infected with T7 phage from a frozen stock (multiplicity of infection ˜0.1) and incubated with shaking at 32° C. until lysis (˜90 minutes). The lysates were centrifuged and filtered to remove cell debris. […] The liganded beads were blocked with excess biotin and washed with blocking buffer (SeaBlock (Pierce), 1% BSA, 0.05% Tween 20, 1 mM DTT) to remove unbound ligand and to reduce non-specific phage binding.
# (§3) Test compounds were prepared as 40× stocks in DMSO and diluted into the aqueous environment. 2.5% DMSO was added to control assays lacking a test compound. All reactions were performed in polystyrene 96-well plates that had been pretreated with blocking buffer in a final volume of 0.04 ml. […] The phage titer in the eluates was measured by quantitative PCR.
# [2] = target: T2, RIOK3 (Homo sapiens, UniProt O14730)
# T2 construct: host or cells: E. coli host derived from BL21, T7 phage lysate
# Text: as §1, §2, §3
# [3] = target: T3, PRKR (Homo sapiens, UniProt P19525)
# T3 construct: purchased Ambit Biosciences Corp (KinomeScan); host or cells: E. coli host derived from BL21, infected with T7 phage
# Text: as §1, §2, §3
# [4] = target: T4, CSNK1G2 (Homo sapiens, UniProt P78368)
# T4 construct: purchased Ambit Biosciences Corp (KinomeScan); host or cells: T7 phage in E. coli host derived from BL21
# Text: as §1, §2, §3
# [5] = target: T5, EPHA3 (Homo sapiens, UniProt P29320)
# T5 construct: host or cells: E. coli host derived from BL21, T7 phage lysate
# Text: as §1, §2, §3
# [6] = target: T6, MYO3A (Homo sapiens, UniProt Q8NEV4)
# T6 construct: host or cells: T7 phage in E. coli host derived from BL21
# Text: as §1, §2, §3
# [7] = target: T7, TSSK1B (Homo sapiens, UniProt Q9BXA7)
# T7 construct: purchased Ambit Biosciences Corp (KinomeScan); host or cells: E. coli host derived from the BL21 strain (T7 phage lysate)
# Text: as §1, §2, §3
# [8] = target: T8, PLK4 (Homo sapiens, UniProt O00444)
# T8 construct: purchased Ambit Biosciences Corp (KinomeScan); host or cells: E. coli host derived from BL21, infected with T7 phage
# Text: as §1, §2, §3
# [9] = target: T9, DCAMKL3 (Homo sapiens, UniProt Q9C098)
# T9 construct: purchased Ambit Biosciences Corp (KinomeScan); host or cells: T7 phage in E. coli host derived from BL21
# Text: as §1, §2, §3
# [10] = target: T10, AXL (Homo sapiens, UniProt P30530)
# T10 construct: purchased Ambit Biosciences Corp (KinomeScan); host or cells: E. coli host derived from the BL21 strain, T7 phage
# Text: as §1, §2, §3
# [11] = target: T11, TRKB (Homo sapiens, UniProt Q16620)
# T11 construct: purchased Ambit Biosciences Corp (KinomeScan); host or cells: E. coli host derived from the BL21 strain (T7 phage lysate)
# Text: as §1, §2, §3
# [12] = target: T12, ERK4 (Homo sapiens, UniProt P31152)
# T12 construct: host or cells: E. coli host derived from BL21, T7 phage lysate
# Text: as §1, §2, §3
# [13] = target: T13, SRC (Homo sapiens, UniProt P12931)
# T13 construct: host or cells: E. coli host derived from the BL21 strain, T7 phage lysate
# Text: as §1, §2, §3
# [14] = target: T14, ADCK3 (Homo sapiens, UniProt Q8NI60)
# T14 construct: host or cells: E. coli host derived from BL21 (T7 phage lysate)
# Text: as §1, §2, §3
# [15] = target: T15, MAP4K2 (Homo sapiens, UniProt Q12851)
# T15 construct: host or cells: E. coli derived from BL21, infected with T7 phage
# Text: as §1, §2, §3
# [16] = target: T16, CSNK1E (Homo sapiens, UniProt P49674)
# T16 construct: host or cells: T7 phage in E. coli (BL21-derived)
# Text: as §1, §2, §3
# [17] = target: T17, TYK2 (JH2domain-pseudokinase) (Homo sapiens, UniProt P29597)
# T17 construct: TYK2 (JH2domain-pseudokinase); purchased Ambit Biosciences Corp (KinomeScan); host or cells: E. coli host derived from the BL21 strain (T7 phage lysate)
# Text: as §1, §2, §3
# [18] = target: T18, MAP4K5 (Homo sapiens, UniProt Q9Y4K4)
# T18 construct: host or cells: E. coli derived from BL21, infected with T7 phage
# Text: as §1, §2, §3
# [19] = target: T19, CAMK1 (Homo sapiens, UniProt Q14012)
# T19 construct: purchased Ambit Biosciences Corp (KinomeScan); host or cells: E. coli host derived from the BL21 strain, T7 phage
# Text: as §1, §2, §3
# [20] = target: T20, EGFR (L861Q) (Homo sapiens, UniProt P00533, L861Q)
# T20 construct: host or cells: E. coli host derived from BL21, T7 phage lysate
# Text: as §1, §2, §3
# [21] = target: T21, FLT4 (Homo sapiens, UniProt P35916)
# T21 construct: host or cells: E. coli host derived from BL21, infected with T7 phage
# Text: as §1, §2, §3
# [22] = target: T22, PFTAIRE2 (Homo sapiens, UniProt Q96Q40)
# T22 construct: host or cells: E. coli host derived from the BL21 strain, infected with T7 phage
# Text: as §1, §2, §3
# T4 sequence (P78368 whole entry): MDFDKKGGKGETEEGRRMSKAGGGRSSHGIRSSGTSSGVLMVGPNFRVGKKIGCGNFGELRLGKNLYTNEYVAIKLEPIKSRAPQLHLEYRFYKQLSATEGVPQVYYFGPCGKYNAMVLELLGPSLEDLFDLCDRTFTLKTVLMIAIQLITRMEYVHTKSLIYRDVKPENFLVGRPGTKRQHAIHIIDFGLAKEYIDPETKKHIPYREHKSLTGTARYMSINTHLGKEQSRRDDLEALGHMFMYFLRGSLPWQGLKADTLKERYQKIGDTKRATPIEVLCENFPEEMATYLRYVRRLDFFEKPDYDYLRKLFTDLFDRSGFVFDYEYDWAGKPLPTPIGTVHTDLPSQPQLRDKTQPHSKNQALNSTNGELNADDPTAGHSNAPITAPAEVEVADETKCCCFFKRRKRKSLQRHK
# T12 sequence (P31152 whole entry): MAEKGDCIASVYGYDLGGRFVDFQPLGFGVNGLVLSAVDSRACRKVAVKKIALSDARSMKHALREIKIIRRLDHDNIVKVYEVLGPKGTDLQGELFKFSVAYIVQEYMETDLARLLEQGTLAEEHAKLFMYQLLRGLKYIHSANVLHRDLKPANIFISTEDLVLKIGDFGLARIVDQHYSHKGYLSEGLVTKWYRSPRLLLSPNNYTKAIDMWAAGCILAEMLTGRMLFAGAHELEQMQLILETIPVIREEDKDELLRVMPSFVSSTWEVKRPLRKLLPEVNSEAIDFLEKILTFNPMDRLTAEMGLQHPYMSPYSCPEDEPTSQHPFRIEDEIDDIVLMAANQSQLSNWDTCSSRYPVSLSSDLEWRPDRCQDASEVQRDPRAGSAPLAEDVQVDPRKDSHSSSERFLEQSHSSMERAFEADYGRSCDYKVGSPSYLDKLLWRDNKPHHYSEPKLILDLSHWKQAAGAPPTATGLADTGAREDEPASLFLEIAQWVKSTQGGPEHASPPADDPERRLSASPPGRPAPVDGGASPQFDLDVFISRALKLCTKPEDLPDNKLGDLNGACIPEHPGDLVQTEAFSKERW
# T21 sequence (P35916 25-1363): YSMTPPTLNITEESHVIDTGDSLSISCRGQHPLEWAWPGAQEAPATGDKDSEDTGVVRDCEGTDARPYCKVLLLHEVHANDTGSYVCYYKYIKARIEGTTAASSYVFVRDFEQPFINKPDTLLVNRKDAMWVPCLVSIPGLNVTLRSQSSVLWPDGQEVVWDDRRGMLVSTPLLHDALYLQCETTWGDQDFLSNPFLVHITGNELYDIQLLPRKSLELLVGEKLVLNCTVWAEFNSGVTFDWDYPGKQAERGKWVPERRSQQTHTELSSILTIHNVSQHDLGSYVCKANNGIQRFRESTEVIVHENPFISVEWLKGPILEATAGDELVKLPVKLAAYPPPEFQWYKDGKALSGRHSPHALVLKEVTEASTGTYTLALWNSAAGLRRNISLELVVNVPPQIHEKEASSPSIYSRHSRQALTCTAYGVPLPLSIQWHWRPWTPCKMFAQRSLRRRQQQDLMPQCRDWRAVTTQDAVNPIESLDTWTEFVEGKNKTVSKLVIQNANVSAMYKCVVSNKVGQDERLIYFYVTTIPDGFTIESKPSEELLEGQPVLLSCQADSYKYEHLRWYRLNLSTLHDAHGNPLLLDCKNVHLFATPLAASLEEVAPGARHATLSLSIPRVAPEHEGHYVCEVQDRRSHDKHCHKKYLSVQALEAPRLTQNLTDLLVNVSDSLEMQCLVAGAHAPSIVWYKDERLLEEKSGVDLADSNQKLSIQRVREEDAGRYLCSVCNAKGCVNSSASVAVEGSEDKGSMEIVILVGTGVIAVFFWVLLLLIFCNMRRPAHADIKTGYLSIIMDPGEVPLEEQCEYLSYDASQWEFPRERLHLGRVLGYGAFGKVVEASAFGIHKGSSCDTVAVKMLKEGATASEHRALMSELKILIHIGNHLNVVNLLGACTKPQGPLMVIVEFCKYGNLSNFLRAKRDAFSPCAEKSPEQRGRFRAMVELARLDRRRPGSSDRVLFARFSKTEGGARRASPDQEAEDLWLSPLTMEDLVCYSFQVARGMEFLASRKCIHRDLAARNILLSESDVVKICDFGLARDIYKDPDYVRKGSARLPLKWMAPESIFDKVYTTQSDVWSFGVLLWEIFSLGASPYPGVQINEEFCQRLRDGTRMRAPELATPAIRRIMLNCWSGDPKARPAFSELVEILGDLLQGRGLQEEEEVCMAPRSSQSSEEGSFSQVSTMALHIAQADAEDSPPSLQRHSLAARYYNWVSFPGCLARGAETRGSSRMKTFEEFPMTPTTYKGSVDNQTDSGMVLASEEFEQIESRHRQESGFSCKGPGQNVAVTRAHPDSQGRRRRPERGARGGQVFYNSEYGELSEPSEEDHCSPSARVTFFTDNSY
# T7 sequence (Q9BXA7 whole entry): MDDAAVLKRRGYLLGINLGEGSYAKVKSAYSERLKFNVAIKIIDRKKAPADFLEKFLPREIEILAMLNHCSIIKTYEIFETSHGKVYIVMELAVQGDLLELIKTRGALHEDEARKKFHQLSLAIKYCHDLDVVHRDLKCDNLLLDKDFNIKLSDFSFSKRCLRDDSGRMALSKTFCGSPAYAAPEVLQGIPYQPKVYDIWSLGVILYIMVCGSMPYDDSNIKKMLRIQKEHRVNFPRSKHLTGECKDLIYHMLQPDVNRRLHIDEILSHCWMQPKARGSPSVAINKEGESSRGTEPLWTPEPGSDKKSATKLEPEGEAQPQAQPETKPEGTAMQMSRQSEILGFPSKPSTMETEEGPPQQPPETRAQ
# T17 sequence (P29597 589-875 limits assumed): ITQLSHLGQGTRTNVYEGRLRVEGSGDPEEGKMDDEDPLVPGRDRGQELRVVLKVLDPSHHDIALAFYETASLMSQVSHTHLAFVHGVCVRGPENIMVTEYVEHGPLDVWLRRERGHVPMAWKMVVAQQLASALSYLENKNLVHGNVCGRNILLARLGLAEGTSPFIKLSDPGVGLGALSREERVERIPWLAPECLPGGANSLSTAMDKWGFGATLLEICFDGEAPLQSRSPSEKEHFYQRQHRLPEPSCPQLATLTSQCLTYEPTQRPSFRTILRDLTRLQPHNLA
# T15 sequence (Q12851 whole entry): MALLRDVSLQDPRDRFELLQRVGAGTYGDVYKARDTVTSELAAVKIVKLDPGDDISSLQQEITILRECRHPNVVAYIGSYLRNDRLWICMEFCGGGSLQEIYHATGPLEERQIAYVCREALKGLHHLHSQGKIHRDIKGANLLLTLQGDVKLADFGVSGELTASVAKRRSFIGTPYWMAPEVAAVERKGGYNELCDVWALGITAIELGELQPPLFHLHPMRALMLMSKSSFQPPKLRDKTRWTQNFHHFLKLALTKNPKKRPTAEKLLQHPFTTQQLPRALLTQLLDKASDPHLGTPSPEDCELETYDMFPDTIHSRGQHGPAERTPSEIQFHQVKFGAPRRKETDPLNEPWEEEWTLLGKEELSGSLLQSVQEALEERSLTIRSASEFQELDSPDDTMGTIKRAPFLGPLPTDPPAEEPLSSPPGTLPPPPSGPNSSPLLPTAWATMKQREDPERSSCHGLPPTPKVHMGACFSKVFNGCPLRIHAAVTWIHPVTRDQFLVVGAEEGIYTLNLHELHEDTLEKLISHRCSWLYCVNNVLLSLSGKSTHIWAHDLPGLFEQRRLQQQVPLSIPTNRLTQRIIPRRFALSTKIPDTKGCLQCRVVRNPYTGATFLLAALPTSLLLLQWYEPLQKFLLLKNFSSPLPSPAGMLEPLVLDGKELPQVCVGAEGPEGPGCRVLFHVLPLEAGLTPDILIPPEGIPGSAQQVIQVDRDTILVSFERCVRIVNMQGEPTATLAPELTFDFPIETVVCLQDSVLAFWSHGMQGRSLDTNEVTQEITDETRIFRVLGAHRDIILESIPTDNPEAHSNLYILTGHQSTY
# T1 sequence (O95819 whole entry): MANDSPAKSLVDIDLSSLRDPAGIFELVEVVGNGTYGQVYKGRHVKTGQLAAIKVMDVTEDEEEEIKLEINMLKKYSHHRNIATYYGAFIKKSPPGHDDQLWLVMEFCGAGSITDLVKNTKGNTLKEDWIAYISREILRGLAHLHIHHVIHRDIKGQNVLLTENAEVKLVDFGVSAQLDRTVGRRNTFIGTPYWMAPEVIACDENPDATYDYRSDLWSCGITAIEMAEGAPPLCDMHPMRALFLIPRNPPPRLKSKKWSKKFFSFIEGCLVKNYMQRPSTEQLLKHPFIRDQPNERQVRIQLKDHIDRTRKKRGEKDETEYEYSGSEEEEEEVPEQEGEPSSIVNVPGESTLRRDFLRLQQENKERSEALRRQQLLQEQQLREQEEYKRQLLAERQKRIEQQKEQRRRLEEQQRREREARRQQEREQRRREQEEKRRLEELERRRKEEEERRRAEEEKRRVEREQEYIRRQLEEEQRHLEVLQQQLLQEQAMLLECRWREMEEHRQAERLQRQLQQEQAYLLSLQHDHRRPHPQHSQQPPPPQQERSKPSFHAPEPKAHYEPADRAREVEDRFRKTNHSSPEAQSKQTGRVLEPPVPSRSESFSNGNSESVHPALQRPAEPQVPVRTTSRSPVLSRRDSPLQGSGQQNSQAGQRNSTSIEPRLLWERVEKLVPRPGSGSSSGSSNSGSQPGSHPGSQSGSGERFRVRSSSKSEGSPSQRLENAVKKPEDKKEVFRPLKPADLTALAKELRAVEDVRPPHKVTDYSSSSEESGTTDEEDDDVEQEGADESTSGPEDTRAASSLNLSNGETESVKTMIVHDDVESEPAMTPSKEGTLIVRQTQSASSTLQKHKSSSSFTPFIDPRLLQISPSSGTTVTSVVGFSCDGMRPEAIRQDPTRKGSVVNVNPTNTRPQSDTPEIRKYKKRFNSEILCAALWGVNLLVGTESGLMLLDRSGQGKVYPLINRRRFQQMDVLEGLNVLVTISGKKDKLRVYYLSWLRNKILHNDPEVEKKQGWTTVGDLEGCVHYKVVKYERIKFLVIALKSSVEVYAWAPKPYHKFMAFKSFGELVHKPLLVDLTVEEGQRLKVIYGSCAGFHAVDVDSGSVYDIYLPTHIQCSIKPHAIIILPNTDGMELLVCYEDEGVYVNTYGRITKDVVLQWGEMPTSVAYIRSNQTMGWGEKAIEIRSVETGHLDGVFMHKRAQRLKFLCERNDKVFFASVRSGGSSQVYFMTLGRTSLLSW
compound,measurement,setting,value
"C#Cc1cccc(Nc2ncnc3cc(OC)c(OCCCN4CCOCC4)cc23)c1 [NRC-2694, N-(3-ethylnylphenyl)-7-methoxy-6-[3-(4-morpholinyl)propoxy]-4-quinazolinamine]",% Ctrl @ 10000 nM,[1],20 % Ctrl
same,% Ctrl @ 10000 nM,[2],37 % Ctrl
same,% Ctrl @ 10000 nM,[3],51 % Ctrl
same,% Ctrl @ 10000 nM,[4],76 % Ctrl
same,% Ctrl @ 10000 nM,[5],56 % Ctrl
same,% Ctrl @ 10000 nM,[6],70 % Ctrl
same,% Ctrl @ 10000 nM,[7],93 % Ctrl
same,% Ctrl @ 10000 nM,[8],70 % Ctrl
same,% Ctrl @ 10000 nM,[9],14 % Ctrl
same,% Ctrl @ 10000 nM,[10],25 % Ctrl
same,% Ctrl @ 10000 nM,[11],73 % Ctrl
same,% Ctrl @ 10000 nM,[12],3.7 % Ctrl
same,% Ctrl @ 10000 nM,[13],24 % Ctrl
same,% Ctrl @ 10000 nM,[14],14 % Ctrl
same,% Ctrl @ 10000 nM,[15],48 % Ctrl
same,% Ctrl @ 10000 nM,[16],9.6 % Ctrl
same,% Ctrl @ 10000 nM,[17],23 % Ctrl
same,% Ctrl @ 10000 nM,[18],23 % Ctrl
same,% Ctrl @ 10000 nM,[19],65 % Ctrl
same,% Ctrl @ 10000 nM,[20],0 % Ctrl
same,% Ctrl @ 10000 nM,[21],66 % Ctrl
same,% Ctrl @ 10000 nM,[22],71 % Ctrl
